Test results from patent US7312248B2, “Control of parasites in animals by the use of novel trifluoromethanesulfonanilide oxime ether derivatives” (Schering-Plough Animal Health Corporation, priority 2004, dated 2007).

Experiments:
[1] = tested on: Haemonchus contortus; experiment: Haemonchus contortus larvacidal (larval development) assay; format: in vivo; settings: 144 h, read-out: Haemonchus contortus LD99
Procedure, shortened: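 Nematode eggs placed on agar containing compound (12 two-fold dilutions, final 0.024–50 μg/ml) and left 6 days to develop to L3. LD99 is the lowest concentration inhibiting development of 99% of larvae, derived from well titre (2^n−1) and top concentration.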

[2] = tested on: Brown Dog Tick (Rhipicephalus sanguineus); experiment: Rapid screening protocol for topical application on brown dog ticks; format: in vivo; settings: 48 h; Laboratory 2 F data

CC/C(=N\OCc1ccc(C(F)(F)F)cc1)c1cc(Cl)ccc1NS(=O)(=O)C(F)(F)F [Compound 9]
IC99 [1]: 0.6 µg/mL
R. sanguineus Mortality (%) 48 h [2]: 95%

CC/C(=N\OCc1ccc(Cl)cc1)c1cc(Cl)ccc1NS(=O)(=O)C(F)(F)F [Compound 11, N-{4-chloro-2-[1-(4-chlorobenzyloxyimino)propyl]phenyl}trifluoromethanesulfonamide]
IC99 [1]: 0.7 µg/mL
R. sanguineus Mortality (%) 48 h [2]: 97%
